Active and inactive are the calls of the source. The calls are words filed in the database; no cut-off is given here.
Key:
Streptomyces [1] = assay: Growth inhibition in Streptomyces 85E at 10 ug/disk by hyphae formation inhibition assay; format: functional, organism-based
Streptomyces [2] = assay: Growth inhibition in Streptomyces 85E at 2.5 ug/disk by hyphae formation inhibition assay; format: functional, organism-based
Streptomyces [3] = assay: Growth inhibition in Streptomyces 85E at 20 ug/disk by hyphae formation inhibition assay; format: functional, organism-based
Streptomyces [4] = assay: Growth inhibition in Streptomyces 85E at 5 ug/disk by hyphae formation inhibition assay; format: functional, organism-based
Streptomyces [5] = assay: Growth inhibition in Streptomyces 85E assessed as bald phenotype around disk at 5 ug/disk by hyphae formation inhibition assay; format: functional; conditions: read-out: IZ
Streptomyces [6] = assay: Growth inhibition in Streptomyces 85E assessed as clear zone of inhibition at 10 ug/disk by hyphae formation inhibition assay; format: functional; conditions: read-out: IZ
Streptomyces [7] = assay: Growth inhibition in Streptomyces 85E assessed as clear zone of inhibition at 20 ug/disk by hyphae formation inhibition assay; format: functional; conditions: read-out: IZ
Streptomyces [8] = assay: Growth inhibition in Streptomyces 85E assessed as bald phenotype around disk at 20 ug/disk by hyphae formation inhibition assay; format: functional; conditions: read-out: IZ
Streptomyces [9] = assay: Growth inhibition in Streptomyces 85E assessed as bald phenotype around disk at 10 ug/disk by hyphae formation inhibition assay; format: functional; conditions: read-out: IZ
Streptomyces [10] = assay: Growth inhibition in Streptomyces 85E assessed as bald phenotype around disk at 2.5 ug/disk by hyphae formation inhibition assay; format: functional; conditions: read-out: IZ
Streptomyces [11] = assay: Growth inhibition in Streptomyces 85E assessed as clear zone of inhibition at 5 ug/disk by hyphae formation inhibition assay; format: functional; conditions: read-out: IZ

C=C(C)C(O)Cc1cc(C(=O)Nc2c(O)c3ccc(O)c(C)c3oc2=O)ccc1O (configuration not stated)
inhibition zone (IZ) (Streptomyces [1]): inactive | inhibition zone (IZ) (Streptomyces [2]): inactive | inhibition zone (IZ) (Streptomyces [3]): inactive | inhibition zone (IZ) (Streptomyces [4]): inactive

CO[C@@H]1[C@@H](OC(N)=O)[C@@H](O)[C@H](Oc2ccc3c(O)c(NC(=O)c4ccc5c(c4)CC(C(C)C)O5)c(=O)oc3c2C)OC1(C)C (some centres not stated) [COMABIOCIN B]
inhibition zone (IZ) (Streptomyces [2]): inactive | zone of inhibition at 5 µg/disc (Streptomyces [5]): 10 mm | zone of inhibition at 10 µg/disc (Streptomyces [6]): 12 mm | zone of inhibition at 20 µg/disc (Streptomyces [7]): 14 mm

CO[C@@H]1[C@@H](OC(N)=O)[C@@H](O)[C@H](Oc2ccc3c(O)c(NC(=O)c4ccc5c(c4)CC(C(C)(C)O)O5)c(=O)oc3c2C)OC1(C)C (some centres not stated) [COUMABIOCIN A]
inhibition zone (IZ) (Streptomyces [1]): inactive | inhibition zone (IZ) (Streptomyces [2]): inactive | zone of inhibition at 20 µg/disc (Streptomyces [7]): 13 mm | inhibition zone (IZ) (Streptomyces [4]): inactive

CO[C@@H]1[C@@H](OC(N)=O)[C@@H](O)[C@H](Oc2ccc3c(O)c(NC(=O)c4ccc5c(c4)CCC(C)(C)O5)c(=O)oc3c2C)OC1(C)C [COUMABIOCIN C]
inhibition zone (IZ) (Streptomyces [2]): inactive | zone of inhibition at 10 µg/disc (Streptomyces [6]): 10 mm | zone of inhibition at 20 µg/disc (Streptomyces [7]): 15 mm | inhibition zone (IZ) (Streptomyces [4]): inactive

CO[C@@H]1[C@@H](OC(N)=O)[C@@H](O)[C@H](Oc2ccc3c(O)c(NC(=O)c4ccc5c(c4)CC(O)C(C)(C)O5)c(=O)oc3c2C)OC1(C)C (some centres not stated) [COUMABIOCIN D]
inhibition zone (IZ) (Streptomyces [1]): inactive | inhibition zone (IZ) (Streptomyces [2]): inactive | zone of inhibition at 20 µg/disc (Streptomyces [7]): 10 mm | inhibition zone (IZ) (Streptomyces [4]): inactive

C=C(C)C(O)Cc1cc(C(=O)Nc2c(O)c3ccc(O[C@@H]4OC(C)(C)[C@H](OC)[C@@H](OC(N)=O)[C@H]4O)c(C)c3oc2=O)ccc1O (some centres not stated) [COUMABIOCIN E]
inhibition zone (IZ) (Streptomyces [1]): inactive | inhibition zone (IZ) (Streptomyces [2]): inactive | zone of inhibition at 20 µg/disc (Streptomyces [7]): 11 mm | inhibition zone (IZ) (Streptomyces [4]): inactive

CO[C@@H]1[C@@H](O)[C@@H](OC(N)=O)[C@H](Oc2ccc3c(O)c(NC(=O)c4ccc(O)c(CC=C(C)C)c4)c(=O)oc3c2C)OC1(C)C [ISONOVOBIOCIN]
inhibition zone (IZ) (Streptomyces [2]): inactive | zone of inhibition at 20 µg/disc (Streptomyces [8]): 10 mm | zone of inhibition at 10 µg/disc (Streptomyces [9]): 9 mm | inhibition zone (IZ) (Streptomyces [4]): inactive

CO[C@@H]1[C@@H](OC(N)=O)[C@@H](O)[C@H](Oc2ccc3c(O)c(NC(=O)c4ccc(O)c(CC=C(C)C)c4)c(=O)oc3c2C)OC1(C)C [NOVOBIOCIN]
zone of inhibition at 2.5 µg/disc (Streptomyces [10]): 18 mm | zone of inhibition at 5 µg/disc (Streptomyces [11]): 15 mm | zone of inhibition at 10 µg/disc (Streptomyces [6]): 18 mm | zone of inhibition at 20 µg/disc (Streptomyces [7]): 20 mm
